Results from ChEMBL document CHEMBL3046330, “Synthesis and biological activity of hydrazidehydrazones and their corresponding 3-acetyl-2,5-disubstituted-2,3-dihydro-1,3,4-oxadiazoles” (Med Chem Res, 2012).
Converted amounts (≈) assume the structure as drawn. The source made the active and inactive calls. The calls are words filed in the database; no cut-off is given here.

Legend:
HL-60 [1] = assay: Cytotoxicity against Homo sapiens (human) HL60 cells up to 25 ug/ml; assay type: cell-based
Candida parapsilosis = assay: Antifungal activity against Candida parapsilosis NRRL Y-12696 after 24 hr by NCCLS broth microdilution method; assay type: functional; conditions: Lodderomyces parapsilosis, NRRL Y-12696, 24 h
Candida albicans [2] = assay: Antifungal activity against Candida albicans clinical isolate at 2000 ug/ml by agar diffusion method; assay type: functional; conditions: read-out: IZ
Candida albicans [3] = assay: Antifungal activity against Candida albicans ATCC 90028 after 24 hr by NCCLS broth microdilution method; assay type: functional; conditions: ATCC 90028, 24 h
[4] = Inhibition of PMA-induced NFkappaB activity in Homo sapiens (human) SW1353 cells incubated for 30 min followed by PMA induction for 8 hr by luciferase reporter gene assay; assay type: cell-based
RAW264.7 [5] = assay: Cytotoxicity against Mus musculus (mouse) RAW264.7 cells up to 25 ug/ml; assay type: cell-based
BT-549 = assay: Cytotoxicity against Homo sapiens (human) BT549 cells assessed as cell viability up to 25 ug/ml after 48 hr by neutral red assay; assay type: functional, cell-based
[6] = biological target: T1, Nitric oxide synthase, inducible (Mus musculus) (UniProt P29477); assay: Inhibition of iNOS in Mus musculus (mouse) RAW264.7 cells assessed as inhibition of LPS-induced nitrite production up to 25 ug/ml incubated for 30 min prior to LPS challenge measured after 24 hr by Griess assay relative to vehicle-treated control; assay type: cell-based
T1 sequence (whole entry): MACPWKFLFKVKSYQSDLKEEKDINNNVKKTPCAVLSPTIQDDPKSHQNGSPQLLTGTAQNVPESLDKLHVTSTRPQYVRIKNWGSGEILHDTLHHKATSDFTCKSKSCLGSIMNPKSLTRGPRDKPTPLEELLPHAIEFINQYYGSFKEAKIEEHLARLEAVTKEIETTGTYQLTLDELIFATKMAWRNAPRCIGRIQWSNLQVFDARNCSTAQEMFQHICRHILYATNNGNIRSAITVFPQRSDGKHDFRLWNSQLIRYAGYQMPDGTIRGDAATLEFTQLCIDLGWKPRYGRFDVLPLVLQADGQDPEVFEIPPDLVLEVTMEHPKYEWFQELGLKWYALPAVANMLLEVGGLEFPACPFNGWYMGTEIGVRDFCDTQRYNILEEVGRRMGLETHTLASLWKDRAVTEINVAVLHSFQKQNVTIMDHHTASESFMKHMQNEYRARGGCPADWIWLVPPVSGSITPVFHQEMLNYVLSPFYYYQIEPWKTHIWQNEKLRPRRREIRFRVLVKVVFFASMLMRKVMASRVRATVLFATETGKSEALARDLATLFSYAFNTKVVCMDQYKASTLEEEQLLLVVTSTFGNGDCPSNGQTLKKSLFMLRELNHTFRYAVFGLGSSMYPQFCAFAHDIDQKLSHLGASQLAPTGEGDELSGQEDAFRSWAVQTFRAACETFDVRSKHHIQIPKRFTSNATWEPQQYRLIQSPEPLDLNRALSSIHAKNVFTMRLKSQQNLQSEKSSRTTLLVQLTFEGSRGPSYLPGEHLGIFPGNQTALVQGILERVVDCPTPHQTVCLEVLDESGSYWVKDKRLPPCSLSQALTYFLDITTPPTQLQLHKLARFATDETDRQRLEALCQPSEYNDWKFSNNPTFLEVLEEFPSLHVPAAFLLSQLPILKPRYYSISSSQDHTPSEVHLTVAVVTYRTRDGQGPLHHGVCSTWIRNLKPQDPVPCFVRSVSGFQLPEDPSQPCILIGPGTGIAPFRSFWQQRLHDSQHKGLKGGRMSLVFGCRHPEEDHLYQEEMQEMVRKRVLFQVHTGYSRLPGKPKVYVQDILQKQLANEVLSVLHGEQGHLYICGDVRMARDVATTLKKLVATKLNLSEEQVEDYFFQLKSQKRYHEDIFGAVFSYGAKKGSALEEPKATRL

HL-60 [7] = assay: Antioxidant activity in PMA-stimulated Homo sapiens (human) HL60 cells assessed as inhibition of intracellular ROS generation incubated for 30 min prior to PMA stimulation measured after 30 min by DCFH-DA assay; assay type: functional, cell-based
Candida albicans [8] = assay: Antifungal activity against Candida albicans clinical isolate after 24 hr by NCCLS broth microdilution method; assay type: functional
SK-MEL = assay: Cytotoxicity against Homo sapiens (human) SK-MEL cells assessed as cell viability up to 25 ug/ml after 48 hr by neutral red assay; assay type: functional, cell-based
Cyberlindnera jadinii = assay: Antifungal activity against Cyberlindnera jadinii NRRL Y-900 after 24 hr by NCCLS broth microdilution method; assay type: functional; conditions: Williopsis jadinii, NRRL Y-900, 24 h
Candida tropicalis [9] = assay: Antifungal activity against Candida tropicalis NRRL Y-12968 after 24 hr by NCCLS broth microdilution method; assay type: functional; conditions: NRRL Y-12968, 24 h
Transcription factor Sp1 = Transcription factor Sp1 (Homo sapiens, UniProt P08047); assay: Inhibition of Sp1 (unknown origin) up to 25 ug/ml by luciferase reporter gene assay
[10] = Cytotoxicity against Sus scrofa (pig) LLC-PK11 cells assessed as cell viability up to 25 ug/ml after 48 hr by neutral red assay; assay type: cell-based; conditions: llc-pk11, 48 h
SK-OV-3 = assay: Cytotoxicity against Homo sapiens (human) SKOV3 cells assessed as cell viability up to 25 ug/ml after 48 hr by neutral red assay; assay type: functional, cell-based
Vero = assay: Cytotoxicity against Chlorocebus aethiops (African green monkey) Vero cells assessed as cell viability up to 25 ug/ml after 48 hr by neutral red assay; assay type: cell-based; conditions: chlorocebus sabaeus
Candida tropicalis [11] = assay: Antifungal activity against Candida tropicalis NRRL Y-12968 at 2000 ug/ml by agar diffusion method; assay type: functional; conditions: read-out: IZ
Candida albicans [12] = assay: Antifungal activity against Candida albicans NRRL Y-12983 after 24 hr by NCCLS broth microdilution method; assay type: functional; conditions: NRRL Y-12983, 24 h
Pichia kudriavzevii = assay: Antifungal activity against Pichia kudriavzevii NRRL Y-7179 after 24 hr by NCCLS broth microdilution method; assay type: functional; conditions: NRRL Y-7179, 24 h
KB = assay: Cytotoxicity against Homo sapiens (human) KB cells assessed as cell viability up to 25 ug/ml after 48 hr by neutral red assay; assay type: functional, cell-based
HL-60 [13] = assay: Antioxidant activity in PMA-stimulated Homo sapiens (human) HL60 cells assessed as inhibition of intracellular ROS generation up to 25 ug/ml incubated for 30 min prior to PMA stimulation measured after 30 min by DCFH-DA assay relative to vehicle-treated control; assay type: functional, cell-based
Botrytis cinerea = assay: Antifungal activity against Botryotinia fuckeliana at 0.3 to 30 uM after 48 to 72 hr by broth microdilution method; assay type: functional, organism-based
Colletotrichum fragariae = assay: Antifungal activity against Colletotrichum fragariae at 0.3 to 30 uM after 48 to 72 hr by broth microdilution method; assay type: functional, organism-based
[14] = biological target: T2, Nitric oxide synthase, inducible (Mus musculus, UniProt P29477); assay: Inhibition of iNOS in Mus musculus (mouse) RAW264.7 cells assessed as inhibition of LPS-induced nitrite production incubated for 30 min prior to LPS challenge measured after 24 hr by Griess assay; assay type: cell-based
T2 sequence (P29477 whole entry): T1 sequence (whole entry)

Nakaseomyces glabratus = assay: Antifungal activity against Candida glabrata clinical isolate after 24 hr by NCCLS broth microdilution method; assay type: functional
RAW264.7 [15] = assay: Cytotoxicity against Mus musculus (mouse) RAW264.7 cells; assay type: cell-based
SW1353 = assay: Inhibition of PMA-induced NFkappaB activity in Homo sapiens (human) SW1353 cells up to 25 ug/ml incubated for 30 min followed by PMA induction for 8 hr by luciferase reporter gene assay; assay type: cell-based
HL-60 [16] = assay: Cytotoxicity against Homo sapiens (human) HL60 cells; assay type: cell-based

Chain of Transcription factor Sp1 (P08047 whole entry): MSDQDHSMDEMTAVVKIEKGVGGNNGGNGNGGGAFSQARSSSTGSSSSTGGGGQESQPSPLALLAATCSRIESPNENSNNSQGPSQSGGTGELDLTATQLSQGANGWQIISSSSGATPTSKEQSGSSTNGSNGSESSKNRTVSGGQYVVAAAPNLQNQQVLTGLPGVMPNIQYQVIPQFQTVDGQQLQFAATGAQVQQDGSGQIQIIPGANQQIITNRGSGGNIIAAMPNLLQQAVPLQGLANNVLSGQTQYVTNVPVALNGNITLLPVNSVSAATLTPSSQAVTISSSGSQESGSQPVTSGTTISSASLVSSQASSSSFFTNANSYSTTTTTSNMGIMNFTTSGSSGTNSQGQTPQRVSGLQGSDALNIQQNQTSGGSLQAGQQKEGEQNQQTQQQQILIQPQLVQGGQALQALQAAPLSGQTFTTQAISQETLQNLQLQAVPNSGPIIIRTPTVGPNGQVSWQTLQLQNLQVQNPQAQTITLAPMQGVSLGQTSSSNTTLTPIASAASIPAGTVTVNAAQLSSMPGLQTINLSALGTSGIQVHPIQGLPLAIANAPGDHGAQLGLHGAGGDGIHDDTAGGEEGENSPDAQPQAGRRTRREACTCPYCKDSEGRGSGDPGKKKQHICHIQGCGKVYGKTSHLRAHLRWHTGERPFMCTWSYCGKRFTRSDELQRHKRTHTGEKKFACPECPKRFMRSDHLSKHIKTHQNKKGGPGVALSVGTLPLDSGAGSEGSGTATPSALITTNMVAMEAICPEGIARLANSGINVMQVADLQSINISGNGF

MIC (Candida parapsilosis) [µg/mL]	MIC (Candida albicans [3]) [µg/mL]	IC50 [4] [µg/mL]	MIC (Candida albicans [8]) [µg/mL]	MIC (Cyberlindnera jadinii) [µg/mL]	MIC (Candida tropicalis [9]) [µg/mL]	inhibition (INH) (Transcription factor Sp1)	MIC (Candida albicans [12]) [µg/mL]	MIC (Pichia kudriavzevii) [µg/mL]	IC50 [14] [µM]	SMILES	Activity (HL-60 [1])	zone of inhibition at 2000 µg/mL (Candida albicans [2]) [mm]	Activity (RAW264.7 [5])	Activity (BT-549)	Activity (SK-MEL)	Activity [10]	Activity (SK-OV-3)	Activity (Vero)	zone of inhibition at 2000 µg/mL (Candida tropicalis [11]) [mm]	Activity (KB)	further results
500 (≈ 1920 µM)	500 (≈ 1920 µM)	15 (≈ 57.6 µM)	250 (≈ 961 µM)	500 (≈ 1920 µM)	500 (≈ 1920 µM)	Not Active	500 (≈ 1920 µM)	500 (≈ 1920 µM)	–	O=C(N/N=C/c1ccc(F)cc1)c1ccc(F)cc1	Non-toxic	9	Non-toxic	inactive	inactive	Not Active	inactive	Not Active	9	inactive	inhibition [6]: inactive; IC50 (HL-60 [7]): 20 µg/mL (≈ 76.9 µM)
250 (≈ 833 µM)	500 (≈ 1670 µM)	5.5 (≈ 18.3 µM)	250 (≈ 833 µM)	125 (≈ 416 µM)	250 (≈ 833 µM)	Not Active	500 (≈ 1670 µM)	250 (≈ 833 µM)	0.999	CC(=O)N1N=C(c2ccc(F)cc2)OC1c1ccc(O)cc1 (stereo not given)	Non-toxic	9	Non-toxic	inactive	inactive	Not Active	inactive	Not Active	9	inactive	inhibition (HL-60 [13]): inactive; Activity (Botrytis cinerea): inactive; Activity (Colletotrichum fragariae): inactive; MIC (Nakaseomyces glabratus): 500 µg/mL (≈ 1670 µM)
500 (≈ 1940 µM)	500 (≈ 1940 µM)	–	–	500 (≈ 1940 µM)	500 (≈ 1940 µM)	Not Active	500 (≈ 1940 µM)	500 (≈ 1940 µM)	> 96.8	O=C(N/N=C/c1ccc(O)cc1)c1ccc(F)cc1	Non-toxic	9	–	inactive	inactive	Not Active	inactive	Not Active	9	inactive	IC50 (RAW264.7 [15]): > 25 µg/mL; inhibition (SW1353): inactive; inhibition (HL-60 [13]): inactive; inhibition [6]: inactive
500 (≈ 1510 µM)	500 (≈ 1510 µM)	0.75 (≈ 2.27 µM)	250 (≈ 757 µM)	250 (≈ 757 µM)	500 (≈ 1510 µM)	Not Active	500 (≈ 1510 µM)	500 (≈ 1510 µM)	12.1	COc1ccc(C2OC(c3ccc(F)cc3)=NN2C(C)=O)cc1O (stereo not given)	–	9	Non-toxic	inactive	inactive	Not Active	inactive	Not Active	9	inactive	IC50 (HL-60 [7]): 0.9 µg/mL (≈ 2.72 µM); IC50 (HL-60 [16]): 20 µg/mL (≈ 60.5 µM); Activity (Botrytis cinerea): inactive; Activity (Colletotrichum fragariae): inactive; MIC (Nakaseomyces glabratus): 250 µg/mL (≈ 757 µM)
